{"source": "paper PMC11589570", "about": "“Critical assessment of LC3/GABARAP ligands used for degrader development and ligandability of LC3/GABARAP binding pockets” (Nature Communications, 2024)", "key": {"LC3A": {"target": "LC3A (Homo sapiens, UniProt Q9H492)", "test": "FP assay with Cy5-labelled p62 LIR tracer (protein titration and tracer displacement)", "type": "binding", "conditions": "two replicate columns per compound"}, "LC3B": {"target": "LC3B (Homo sapiens, UniProt Q9GZQ8)", "test": "FP assay with Cy5-labelled p62 LIR tracer (protein titration and tracer displacement)", "type": "binding", "conditions": "for normalized FP signal, p62 LIR tracer displacement: LC3B; for compound titration LC3B (displacement curve, FP signal): two replicate columns per compound"}, "LC3C": {"target": "LC3C (Homo sapiens, UniProt Q9BXW4)", "sequence (Q9BXW4 1-126)": "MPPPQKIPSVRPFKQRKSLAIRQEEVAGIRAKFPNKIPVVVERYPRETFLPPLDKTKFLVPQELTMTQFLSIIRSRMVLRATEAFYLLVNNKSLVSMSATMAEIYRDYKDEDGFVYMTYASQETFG", "test": "FP assay with Cy5-labelled p62 LIR tracer (protein titration and tracer displacement)", "type": "binding", "conditions": "two replicate columns per compound"}, "GABARAP": {"target": "GABARAP (Homo sapiens, UniProt O95166)", "sequence (O95166 1-116)": "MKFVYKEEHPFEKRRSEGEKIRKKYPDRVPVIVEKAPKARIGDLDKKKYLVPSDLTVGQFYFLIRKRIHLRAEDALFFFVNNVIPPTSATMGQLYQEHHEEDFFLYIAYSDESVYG", "test": "FP assay with Cy5-labelled p62 LIR tracer (protein titration and tracer displacement)", "type": "binding", "conditions": "two replicate columns per compound"}, "GABARAPL1": {"target": "GABARAPL1 (Homo sapiens, UniProt Q9H0R8)", "sequence (Q9H0R8 whole entry)": "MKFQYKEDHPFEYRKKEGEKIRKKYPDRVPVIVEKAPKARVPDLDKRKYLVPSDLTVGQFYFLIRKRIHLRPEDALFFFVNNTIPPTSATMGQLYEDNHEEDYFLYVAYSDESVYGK", "test": "FP assay with Cy5-labelled p62 LIR tracer (protein titration and tracer displacement)", "type": "binding", "conditions": "for compound titration GABARAPL1 (displacement curve, FP signal): two replicate columns per compound; for FP tracer displacement curve signal (compound titration): duplicate values, listed as Cov2"}, "all LC3/GABARAPs": {"test_system": "all LC3/GABARAPs", "test": "Covalent compound screening by ESI LC-MS", "conditions": "50 µM protein, 100 µM compound, 90 min"}, "[1]": {"conditions": "log10 concentration [M] -3.82391"}, "[2]": {"conditions": "log10 concentration [M] -4.1549"}, "[3]": {"conditions": "log10 concentration [M] -4.60206"}, "[4]": {"conditions": "log10 concentration [M] -5.30103"}, "[5]": {"conditions": "log10 concentration [M] -5.69897"}, "[6]": {"conditions": "log10 concentration [M] -6.22185"}, "[7]": {"conditions": "log10 concentration [M] -6.69897"}, "[8]": {"conditions": "log10 concentration [M] -7.30103"}, "[9]": {"conditions": "log10 concentration [M] -7.79588"}, "[10]": {"conditions": "log10 concentration [M] -8.08092"}}, "note": "“And” between values parts separate entries of the source, which are not always exact repeats. Equal entries are not always repeated."}
{"smiles": "CC(=O)N1CCN(CCNC=C2C(=O)CC(c3ccc(Cl)cc3)CC2=O)CC1", "note": "(stereo not drawn) [compound 6]", "values": [{"measurement": "compound titration LC3A (displacement curve, FP signal)", "setting": "LC3A; [1]", "result": "92.8947 and 97.3684"}, {"measurement": "compound titration LC3A (displacement curve, FP signal)", "setting": "LC3A; [2]", "result": "97.1053 and 102.368"}, {"measurement": "compound titration LC3A (displacement curve, FP signal)", "setting": "LC3A; [3]", "result": "99.7368 and 100.789"}, {"measurement": "compound titration LC3A (displacement curve, FP signal)", "setting": "LC3A; log10 concentration [M] -5", "result": "103.421 and 103.947"}, {"measurement": "compound titration LC3A (displacement curve, FP signal)", "setting": "LC3A; [4]", "result": "103.421 and 100.789"}, {"measurement": "compound titration LC3A (displacement curve, FP signal)", "setting": "LC3A; [5]", "result": "99.7368 and 96.0526"}, {"measurement": "compound titration LC3A (displacement curve, FP signal)", "setting": "LC3A; [6]", "result": "101.316 and 102.105"}, {"measurement": "compound titration LC3A (displacement curve, FP signal)", "setting": "LC3A; [7]", "result": "103.947 and 107.368"}, {"measurement": "compound titration LC3A (displacement curve, FP signal)", "setting": "LC3A; [8]", "result": "104.211 and 101.579"}, {"measurement": "compound titration LC3A (displacement curve, FP signal)", "setting": "LC3A; [9]", "result": "104.211 and 98.6842"}, {"measurement": "compound titration LC3A (displacement curve, FP signal)", "setting": "LC3A; [10]", "result": "104.211 and 93.9474"}, {"measurement": "normalized FP signal, p62 LIR tracer displacement", "setting": "LC3B; [1]", "result": "71.5789 and 68.1579"}, {"measurement": "normalized FP signal, p62 LIR tracer displacement", "setting": "LC3B; [2]", "result": "85 and 83.6842"}, {"measurement": "normalized FP signal, p62 LIR tracer displacement", "setting": "LC3B; [3]", "result": "92.8947 and 95.7895"}, {"measurement": "normalized FP signal, p62 LIR tracer displacement", "setting": "LC3B; log10 concentration [M] -5", "result": "95.7895 and 97.3684"}, {"measurement": "normalized FP signal, p62 LIR tracer displacement", "setting": "LC3B; [4]", "result": "97.6316 and 99.7368"}, {"measurement": "normalized FP signal, p62 LIR tracer displacement", "setting": "LC3B; [5]", "result": "96.0526 and 102.368"}, {"measurement": "normalized FP signal, p62 LIR tracer displacement", "setting": "LC3B; [6]", "result": "95 and 100.789"}, {"measurement": "normalized FP signal, p62 LIR tracer displacement", "setting": "LC3B; [7]", "result": "99.2105 and 96.8421"}, {"measurement": "normalized FP signal, p62 LIR tracer displacement", "setting": "LC3B; [8]", "result": "99.7368 and 100.263"}, {"measurement": "normalized FP signal, p62 LIR tracer displacement", "setting": "LC3B; [9]", "result": "97.6316 and 101.579"}, {"measurement": "normalized FP signal, p62 LIR tracer displacement", "setting": "LC3B; [10]", "result": "95.2632 and 105.263"}, {"measurement": "compound titration LC3B (displacement curve, FP signal)", "setting": "LC3B; [1]", "result": "71.5789 and 68.1579"}, {"measurement": "compound titration LC3B (displacement curve, FP signal)", "setting": "LC3B; [2]", "result": "85 and 83.6842"}, {"measurement": "compound titration LC3B (displacement curve, FP signal)", "setting": "LC3B; [3]", "result": "92.8947 and 95.7895"}, {"measurement": "compound titration LC3B (displacement curve, FP signal)", "setting": "LC3B; log10 concentration [M] -5", "result": "95.7895 and 97.3684"}, {"measurement": "compound titration LC3B (displacement curve, FP signal)", "setting": "LC3B; [4]", "result": "97.6316 and 99.7368"}, {"measurement": "compound titration LC3B (displacement curve, FP signal)", "setting": "LC3B; [5]", "result": "96.0526 and 102.368"}, {"measurement": "compound titration LC3B (displacement curve, FP signal)", "setting": "LC3B; [6]", "result": "95 and 100.789"}, {"measurement": "compound titration LC3B (displacement curve, FP signal)", "setting": "LC3B; [7]", "result": "99.2105 and 96.8421"}, {"measurement": "compound titration LC3B (displacement curve, FP signal)", "setting": "LC3B; [8]", "result": "99.7368 and 100.263"}, {"measurement": "compound titration LC3B (displacement curve, FP signal)", "setting": "LC3B; [9]", "result": "97.6316 and 101.579"}, {"measurement": "compound titration LC3B (displacement curve, FP signal)", "setting": "LC3B; [10]", "result": "95.2632 and 105.263"}, {"measurement": "compound titration LC3C (displacement curve, FP signal)", "setting": "LC3C; [1]", "result": "87.8 and 86.8"}, {"measurement": "compound titration LC3C (displacement curve, FP signal)", "setting": "LC3C; [2]", "result": "94.6 and 92"}, {"measurement": "compound titration LC3C (displacement curve, FP signal)", "setting": "LC3C; [3]", "result": "98.2 and 98.8"}, {"measurement": "compound titration LC3C (displacement curve, FP signal)", "setting": "LC3C; log10 concentration [M] -5", "result": "94.6 and 102.4"}, {"measurement": "compound titration LC3C (displacement curve, FP signal)", "setting": "LC3C; [4]", "result": "93.4 and 98.8"}, {"measurement": "compound titration LC3C (displacement curve, FP signal)", "setting": "LC3C; [5]", "result": "90 and 93.6"}, {"measurement": "compound titration LC3C (displacement curve, FP signal)", "setting": "LC3C; [6]", "result": "93.6 and 98.6"}, {"measurement": "compound titration LC3C (displacement curve, FP signal)", "setting": "LC3C; [7]", "result": "97.6 and 98.8"}, {"measurement": "compound titration LC3C (displacement curve, FP signal)", "setting": "LC3C; [8]", "result": "101.6 and 101.4"}, {"measurement": "compound titration LC3C (displacement curve, FP signal)", "setting": "LC3C; [9]", "result": "90.4 and 95.6"}, {"measurement": "compound titration LC3C (displacement curve, FP signal)", "setting": "LC3C; [10]", "result": "99.2 and 98"}, {"measurement": "compound titration GABARAP (displacement curve, FP signal)", "setting": "GABARAP; [1]", "result": "90.8621 and 84.1379"}, {"measurement": "compound titration GABARAP (displacement curve, FP signal)", "setting": "GABARAP; [2]", "result": "94.8276 and 93.7931"}, {"measurement": "compound titration GABARAP (displacement curve, FP signal)", "setting": "GABARAP; [3]", "result": "93.1034 and 98.2759"}, {"measurement": "compound titration GABARAP (displacement curve, FP signal)", "setting": "GABARAP; log10 concentration [M] -5", "result": "100.69 and 98.6207"}, {"measurement": "compound titration GABARAP (displacement curve, FP signal)", "setting": "GABARAP; [4]", "result": "97.5862 and 99.4828"}, {"measurement": "compound titration GABARAP (displacement curve, FP signal)", "setting": "GABARAP; [5]", "result": "92.2414 and 94.1379"}, {"measurement": "compound titration GABARAP (displacement curve, FP signal)", "setting": "GABARAP; [6]", "result": "97.4138 and 95.5172"}, {"measurement": "compound titration GABARAP (displacement curve, FP signal)", "setting": "GABARAP; [7]", "result": "98.1034 and 97.7586"}, {"measurement": "compound titration GABARAP (displacement curve, FP signal)", "setting": "GABARAP; [8]", "result": "98.9655 and 102.759"}, {"measurement": "compound titration GABARAP (displacement curve, FP signal)", "setting": "GABARAP; [9]", "result": "95.6897 and 95"}, {"measurement": "compound titration GABARAP (displacement curve, FP signal)", "setting": "GABARAP; [10]", "result": "97.069 and 98.9655"}, {"measurement": "compound titration GABARAPL1 (displacement curve, FP signal)", "setting": "GABARAPL1; [1]", "result": "89 and 90.4286"}, {"measurement": "compound titration GABARAPL1 (displacement curve, FP signal)", "setting": "GABARAPL1; [2]", "result": "94.7143 and 97.7143"}, {"measurement": "compound titration GABARAPL1 (displacement curve, FP signal)", "setting": "GABARAPL1; [3]", "result": "98.2857 and 100.143"}, {"measurement": "compound titration GABARAPL1 (displacement curve, FP signal)", "setting": "GABARAPL1; log10 concentration [M] -5", "result": "102.429 and 101.571"}, {"measurement": "FP tracer displacement curve signal (compound titration)", "setting": "GABARAPL1; [5]", "result": "94.4286 and 98.2857"}, {"measurement": "FP tracer displacement curve signal (compound titration)", "setting": "GABARAPL1; [6]", "result": "101.857 and 101.143"}, {"measurement": "FP tracer displacement curve signal (compound titration)", "setting": "GABARAPL1; [7]", "result": "102.714 and 104.571"}, {"measurement": "FP tracer displacement curve signal (compound titration)", "setting": "GABARAPL1; [8]", "result": "102.571 and 101.857"}, {"measurement": "FP tracer displacement curve signal (compound titration)", "setting": "GABARAPL1; [9]", "result": "99.8571 and 100.429"}, {"measurement": "FP tracer displacement curve signal (compound titration)", "setting": "GABARAPL1; [10]", "result": "102.571 and 101"}, {"measurement": "covalent labelling (mass shift, ESI MS)", "setting": "all LC3/GABARAPs", "result": "successfully labelled"}]}
